For 25 molecules, IC50 results are on record in patent US7625948B2, “Ester compound and medicinal use thereof” (Japan Tobacco Inc., priority 2002, dated 2009).

In assay [1] the target is T1, Microsomal triglyceride transfer protein (MTP) from bovine liver (Bos taurus, UniProt P55156).
T1 construct: from tissue; host or cells: bovine liver
T1 sequence (P55156 12-887): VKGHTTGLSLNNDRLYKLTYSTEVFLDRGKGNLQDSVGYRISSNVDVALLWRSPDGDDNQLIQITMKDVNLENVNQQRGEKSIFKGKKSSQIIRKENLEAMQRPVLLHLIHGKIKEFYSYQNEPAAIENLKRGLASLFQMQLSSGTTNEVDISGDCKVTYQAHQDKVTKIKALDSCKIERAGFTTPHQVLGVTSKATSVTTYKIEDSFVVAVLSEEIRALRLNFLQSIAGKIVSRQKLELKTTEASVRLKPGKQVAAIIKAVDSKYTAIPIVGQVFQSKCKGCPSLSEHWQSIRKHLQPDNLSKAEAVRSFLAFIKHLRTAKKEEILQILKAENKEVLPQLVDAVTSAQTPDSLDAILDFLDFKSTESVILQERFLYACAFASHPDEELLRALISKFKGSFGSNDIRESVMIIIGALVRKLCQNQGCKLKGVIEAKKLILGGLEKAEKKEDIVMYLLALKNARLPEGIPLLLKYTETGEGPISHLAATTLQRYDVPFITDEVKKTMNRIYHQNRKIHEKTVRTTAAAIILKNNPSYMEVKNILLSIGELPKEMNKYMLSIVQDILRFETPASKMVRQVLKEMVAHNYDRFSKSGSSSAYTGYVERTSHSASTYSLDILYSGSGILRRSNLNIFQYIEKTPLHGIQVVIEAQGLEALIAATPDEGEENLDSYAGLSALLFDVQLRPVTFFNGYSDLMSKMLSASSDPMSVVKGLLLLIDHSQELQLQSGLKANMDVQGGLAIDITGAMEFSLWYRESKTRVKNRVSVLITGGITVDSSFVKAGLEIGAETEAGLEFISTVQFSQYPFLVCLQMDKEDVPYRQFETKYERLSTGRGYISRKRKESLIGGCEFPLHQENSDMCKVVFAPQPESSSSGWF
T1 sequence (P05307 21-510 partner): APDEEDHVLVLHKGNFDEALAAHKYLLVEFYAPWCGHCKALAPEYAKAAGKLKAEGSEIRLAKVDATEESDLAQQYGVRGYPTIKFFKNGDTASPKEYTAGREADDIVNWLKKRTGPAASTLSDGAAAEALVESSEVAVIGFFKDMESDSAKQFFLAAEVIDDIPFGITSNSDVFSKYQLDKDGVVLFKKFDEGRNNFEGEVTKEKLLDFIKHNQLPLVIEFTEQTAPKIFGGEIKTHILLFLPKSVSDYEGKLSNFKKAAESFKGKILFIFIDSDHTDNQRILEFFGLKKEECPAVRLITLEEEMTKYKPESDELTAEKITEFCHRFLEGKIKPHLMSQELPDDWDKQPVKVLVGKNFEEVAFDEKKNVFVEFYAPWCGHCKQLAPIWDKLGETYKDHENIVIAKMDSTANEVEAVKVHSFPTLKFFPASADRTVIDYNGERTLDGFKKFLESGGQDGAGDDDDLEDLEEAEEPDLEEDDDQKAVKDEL
Description: Test Example 1: inhibition of interliposomal triglyceride (TG) transfer activity by MTP (also used for metabolites in Test Example 8). It is filed as biochemical. Here is the method: Inhibition of Interliposomal Triglyceride (TG) Transfer Activity by MTP
Microsomal triglyceride transfer protein (MTP) from bovine liver was partially purified in such a way described below. A buffer (50 mM Tris, 250 mM sucrose, 1 mM EDTA, 0.02% NaN3 (pH 7.4)) for making a homogenate preparation was added to bovine liver, and the mixture was homogenated under ice-cooling, then centrifuged at 10,000×g (4° C., 30 minutes). The supernatant was adjusted to pH 5.1 with hydrochloric acid, and stirred for 30 minutes. The solution was further centrifuged at 10,000×g (4° C., 30 minutes), and 1 mM Tris buffer was added to the precipitated residue, and the mixture was adjusted to pH 8.6 with sodium hydroxide. After addition of 2.7M ammonium sulfate solution, the mixture was stirred for 30 minutes, then centrifuged at 10,000×g (4° C., 40 minutes). The resulting supernatant was served as a crude extraction fraction of MTP and stored at −80° C. under freezing. In its practical use, the crude extraction fraction of MTP was purified by column chromatography on diethylaminoethyl (DEAE) Sepharose using FPLC (Fast Performance Liquid Chromatography) system, and the purified MTP was used for the test.
Small unilamellar-vesicle (SUV) liposome (donor, 0.25 mol % triolein, 5 mol % cardiolipin) labeled with ^14C-triolein and non-labeled SUV liposome (acceptor, 0.25 mol % triolein) were prepared. A fixed amount of donor and acceptor, and MTP were mixed with a sample dissolved in DMSO or with DMSO. The mixture was incubated in a 15 mM Tris hydrochloride buffer (pH 7.4) containing 40 mM sodium chloride, 1 mM EDTA (ethylenediaminetetraacetic acid), 0.02% NaN3 and 0.5% bovine serum albumin at 37° C. for one hour. After completion of the incubation, a suspension of DEAE cellulose (50% v/v) in 15 mM Tris hydrochloride buffer (pH 7.4) was added to the above solution, and the mixture was centrifuged to separate the donor and the acceptor. The radioactivity in the acceptor was measured by liquid scintillation counter. The value obtained by subtracting the radioactivity in the blank from the amount of radioactivity in the acceptor of a DMSO group was determined as MTP-mediated TG transfer activity, and it was compared with the value obtained by subtracting the radioactivity in the blank from the radioactivity in a sample group. The blank was prepared by adding 15 mM Tris-HCl buffer (pH 7.4) in place of MTP. Inhibition rate (%) was calculated from the values obtained according to the following equation.
Inhibition rate (%)=100×(1 minus ((radioactivity of sample group minus radioactivity of blank group)/(radioactivity of DMSO group minus radioactivity of blank group))).
50% Inhibition rate (IC50) was determined on the basis of the above equation.
Inhibitory Activity on MTP and apo B Secretion Inhibition by Metabolites
In a similar manner to Test Examples 1 and 2, the activity of metabolites was assayed.

In assay [2] the test system is HepG2 cells. Description: Test Example 2: inhibition of apolipoprotein B secretion from HepG2 cells, ELISA (also used for metabolites in Test Example 8). The class given is cell-based. Conditions: Homo sapiens. The gist of the method: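 HepG2 cells cultured 24 h, then exposed 24 h to compounds or metabolites in medium with 0.5% DMSO. Secreted apo B in supernatant quantified by sandwich ELISA (HRP, ABTS, 405 nm) against purified human apo B standard; % inhibition vs DMSO group, IC50 derived.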
Background: An ELISA detects its analyte on a solid surface through an enzyme-linked reagent.

[3] abbreviates: MTP-mediated 14C-triolein transfer between liposomes, 37° C., one hour, read-out: Test Example 1 MTP inhibition IC50.
The mark [4] stands for this setting: 24 hours, apo B in supernatant by ELISA, read-out: Test Example 2 Inhibition of apo B secretion IC50.
Setting [5] is: main metabolites of the compounds (Test Example 8), read-out: MTP inhibition IC50.
Setting [6] is: main metabolites of the compounds (Test Example 8), read-out: Inhibition of apo B secretion IC50.

Where two headings read alike, the source gives them in different places. Bounds are passed on as bounds.

A word on the IC50: it is the concentration that inhibits the measured activity by half. On to `O=C(OCCC1(C(=O)NCC(F)(F)F)c2ccccc2-c2ccccc21)c1ccc(NC(=O)c2ccccc2-c2ccc(C(F)(F)F)cc2)cc1` [Example 6, 4-[(4′-Trifluoromethylbiphenyl-2-carbonyl)amino]benzoic acid 2-[9-(2,2,2-trifluoroethylcarbamoyl)-9H-fluoren-9-yl]ethyl ester], for which the IC50 worked out at 0.00347 µM in assay [1] (setting [3]) and 0.0583 µM in assay [2] (setting [4]).

As to `CCCOC(=O)C(COC(=O)Cc1ccc(NC(=O)c2ccccc2-c2ccc(C(F)(F)F)cc2)cc1)(C(=O)OCCC)c1ccccc1` [Example 1-62], the IC50 in assay [1] (setting [3]) is 0.005 µM; in assay [2] (setting [4]), 0.046 µM.

In the case of `CCOC(=O)C(COC(=O)Cn1ccc2c(NC(=O)c3ccccc3-c3ccc(C(F)(F)F)cc3)cccc21)(C(=O)OCC)c1ccccc1` [Example 9, 2-Phenyl-2-(2-{4-[(4′-trifluoromethylbiphenyl-2-carbonyl)amino]indol-1-yl}acetoxymethyl)malonic acid diethyl ester], the figures for the IC50 in assay [1] (setting [3]) and in assay [2] (setting [4]) were 0.011 µM and 0.26 µM, respectively.

Turning to `CCNC(=O)C(COC(=O)Cc1ccc(NC(=O)c2ccccc2-c2ccc(Cl)cc2)cc1)(C(=O)NCC)c1ccccc1` [Example 1-70], the IC50 amounted to 0.0016 µM in assay [1] (setting [3]) and 0.27 µM in assay [2] (setting [4]).

For the molecule `CCCNC(=O)C(CO)(C(=O)NCCC)c1ccccc1`, the IC50 in assay [1] (setting [5]) is more than 1 µM; in assay [2] (setting [6]), more than 10 µM.

For `CCNC(=O)C(COC(=O)Cc1ccc(NC(=O)c2ccccc2-c2ccc(Cl)c(Cl)c2)cc1)(C(=O)NCC)c1ccccc1` [Example 1-71], the IC50 in assay [1] (setting [3]) stood at 0.0018 µM; in assay [2] (setting [4]), 0.12 µM.

As to `CCOC(=O)C(COC(=O)Cc1ccc(NC(=O)c2ccccc2-c2ccc(C(F)(F)F)cc2)c(OC)c1)(C(=O)OCC)c1ccccc1` [Example 3-4], the results for the IC50 in assay [1] (setting [3]) and in assay [2] (setting [4]) were 0.0021 µM and 0.013 µM, respectively.

With `CCNC(=O)C(CCOC(=O)c1ccc(OC(=O)c2ccccc2-c2ccc(C(F)(F)F)cc2)cc1)(C(=O)NCC)c1ccccc1` [Example 6-21], the IC50 was 0.0098 µM in assay [1] (setting [3]) and 0.92 µM in assay [2] (setting [4]).

In the case of `CCOC(=O)C(COC(=O)Cc1ccc(NC(=O)c2ccccc2-c2ccc(C(F)(F)F)cc2)c(C(F)(F)F)c1)(C(=O)OCC)c1ccccc1` [Example 1-40], the IC50 is 0.0069 µM in assay [1] (setting [3]) and 0.0021 µM in assay [2] (setting [4]).

Regarding `COc1cc(CC(=O)O)ccc1NC(=O)c1ccccc1-c1ccc(C(F)(F)F)cc1`, the IC50 was more than 1 µM in assay [1] (setting [5]) and more than 10 µM in assay [2] (setting [6]).

Consider `CCOC(=O)C(COC(=O)Cc1ccc(NC(=O)c2ccccc2-c2ccc(C(F)(F)F)cc2)c(OCc2ccccc2)c1)(C(=O)OCC)c1ccccc1` [Example 3-14], for which the IC50 is 0.013 µM in assay [1] (setting [3]) and 0.064 µM in assay [2] (setting [4]).

In the case of `CC(C)OC(=O)C(COC(=O)Cc1ccc(NC(=O)c2ccccc2-c2ccc(C(F)(F)F)cc2)cc1)(C(=O)OC(C)C)c1ccccc1` [Example 1-11], the figures for the IC50 in assay [1] (setting [3]) and in assay [2] (setting [4]) were 0.032 µM and 0.022 µM, respectively.

With `O=C(Cc1ccc(NC(=O)c2ccccc2-c2ccc(C(F)(F)F)cc2)cc1)OCC(C(=O)NCC(F)(F)F)c1ccccc1` (centres unmarked) [Example 1-8], the IC50 was determined as 0.0375 µM in assay [1] (setting [3]) and 0.72 µM in assay [2] (setting [4]).

For `CCCNC(=O)C(CCOC(=O)Cc1ccc(NC(=O)c2ccccc2-c2ccc(C(F)(F)F)cc2)cc1)(C(=O)NCCC)c1ccccc1` [Example 1-49], the IC50 in assay [1] (setting [3]) amounted to 0.02 µM; in assay [2] (setting [4]), 0.0053 µM.

`CCOC(=O)C(CO)(C(=O)OCC)c1ccccc1`: the IC50 was more than 1 µM in assay [1] (setting [5]) and more than 10 µM in assay [2] (setting [6]).

With `CCOC(=O)C(CCOC(=O)Cc1ccc(C)c(NC(=O)c2ccccc2-c2ccc(C(F)(F)F)cc2)c1)(C(=O)OCC)c1ccccc1` [Example 5-6], the half-inhibitory concentration (IC50) was determined as 0.0039 µM in assay [1] (setting [3]) and 0.26 µM in assay [2] (setting [4]).

As for `CC(C(=O)OCC1(C(=O)NCC(F)(F)F)c2ccccc2-c2ccccc21)c1ccc(NC(=O)c2ccccc2-c2ccc(C(F)(F)F)cc2)cc1` (centres unmarked) [Example 1-7], the IC50 in assay [1] (setting [3]) amounted to 0.00755 µM; in assay [2] (setting [4]) it was 0.33 µM.

With `CCOC(=O)C(COC(=O)Cc1ccc(N(C)C(=O)c2ccccc2-c2ccc(C(F)(F)F)cc2)cc1)(C(=O)OCC)c1ccccc1` [Example 1-4, 2-(2-{4-[Methyl-(4′-trifluoromethylbiphenyl-2-carbonyl)amino]phenyl}acetoxymethyl)-2-phenylmalonic acid diethyl ester], the IC50 in assay [1] (setting [3]) was found to be 0.0034 µM; in assay [2] (setting [4]), 0.19 µM.

As to `CCOC(=O)C(COC(=O)Cc1ccc(NC(=O)c2ccccc2-c2ccc(C(F)(F)F)cc2)cc1)(C(=O)OCC)C1CCCC1` [Example 1-14], the IC50 in assay [1] (setting [3]) came to 0.082 µM; in assay [2] (setting [4]) it was 0.055 µM.

As for `CCNC(=O)C(CCOC(=O)Cc1ccc(NC(=O)c2ccccc2-c2ccc(C(F)(F)F)cc2)cc1)(C(=O)NCC)c1ccccc1` [Example 1-48], the values for the IC50 in assay [1] (setting [3]) and in assay [2] (setting [4]) were 0.0032 µM and 0.0097 µM, respectively.

Take `CCOC(=O)C(COC(=O)Cc1ccc(NC(=O)c2ccccc2-c2ccc(C(F)(F)F)cc2)cc1)(C(=O)OCC)c1cccnc1` [Example 1-38]: the results for the IC50 in assay [1] (setting [3]) and in assay [2] (setting [4]) were 0.006 µM and 0.32 µM, respectively.

On to `O=C(Cc1ccc(OC(=O)c2ccccc2-c2ccc(C(F)(F)F)cc2)cc1)OCC(C(=O)NCC(F)(F)F)(C(=O)NCC(F)(F)F)c1ccccc1` [Example 1-28], for which the IC50 in assay [1] (setting [3]) worked out at 0.035 µM; in assay [2] (setting [4]), 0.64 µM.

On to `CCNC(=O)C(CO)(C(=O)NCC)c1ccccc1`, for which the IC50 in assay [1] (setting [5]) is more than 1 µM; in assay [2] (setting [6]) it was more than 10 µM.

Consider `CCCCOc1ccccc1C(=O)Nc1ccc(CC(=O)OCC(C(=O)NCC)(C(=O)NCC)c2ccccc2)cc1` [Example 1-52], for which the results for the IC50 in assay [1] (setting [3]) and in assay [2] (setting [4]) were 0.01 µM and 0.69 µM, respectively.

In the case of `CCNC(=O)C(COC(=O)Cc1ccc(NC(=O)c2ccccc2Oc2ccccc2)cc1)(C(=O)NCC)c1ccccc1` [Example 1-51], the IC50 came to 0.00096 µM in assay [1] (setting [3]) and 0.53 µM in assay [2] (setting [4]).
